Measurements taken from patent US6929912B2 (priority 1998, dated 2005).
Values joined by “and” are separate entries in the source; they are usually repeats but may differ in a detail not shown here. Identical values can stand only once. Like-named read-outs stand apart in the source and are kept apart here.

Key:
[1] = test system: metastatic or inflammatory breast cancer; format: in vivo, human
breast cancer = conditions: cited from earlier work

SMILES	Survival >3 years: Yes ([1]; human, in vivo)	chance of survival relative to patients homozygous for the A allele ([1]; CYP3A4 B allele patients)	Survival >3 years: Yes ([1]; CYP3A4 genotype AA (wildtype))	Survival >3 years: Yes ([1]; CYP3A4 genotype AB or BB)	chance of survival relative to patients homozygous for the A allele ([1]; CYP3A5 B allele patients)	Survival >3 years: Yes ([1]; CYP3A5 genotype AA (wildtype))	Survival >3 years: Yes ([1]; CYP3A5 genotype AB or BB)	blood concentrations of CY on day 3 (patients carrying the CYP3A4 promoter -392 variant vs without, p=0.0247)	blood concentrations of CY on day 2 (patients carrying the CYP3A4 promoter -392 variant vs without, p=0.0260)	Apparent induction of CY metabolism (Day 3 exposure/Day 1 exposure) (patients carrying the CYP3A4 variant SNP vs without, p=0.0260)	blood concentrations of CY on day 2 (patients carrying the CYP3A5 promoter -147 variant vs without, p=0.0281)	concentrations of CY (patients with CYP3A4 B allele vs homozygous for the A allele, day not given)	Blood concentrations of CY (patients with CYP3A5 B alleles vs homozygous for the A allele, day not given)	objective responses, patients (breast cancer; cyclophosphamide used alone)	objective responses, patients (breast cancer; cyclophosphamide used in combination regimens)
O=NN(CCCl)C(=O)NCCCl [BCNU, 1,3-bis-(chloroethyl)-1-nitrosourea]	55.6% and 29.7%														
O=P1(N(CCCl)CCCl)NCCCO1 (stereo not drawn) [CY, cyclophosphamide]		⅓	46.6%	15.4%	less than ⅓	48.2%	14.3%	significantly higher	significantly higher	higher	significantly higher	higher	significantly higher	about 35%	up to 90%
